# What was measured:
# [1] = system: superoxide anion radical (O2.-) in endometrial stromal cells; assay: Determination of superoxide anion (O2.-) content; assay type: cell-based, human; settings: 18 h
# Description: Superoxide anion (O2.^−) assay kit was purchased from Nanjing Jiancheng Bioengineering Insitute; Hydroxyl free radical assay kit was purchased from Shanghai Xinyu Biological Technology Co., Ltd., Hydrogen Peroxide Assay Kit was purchased from Beyotime Biotechnology Research Institute. The cells were cultured in 96-well cell culture plates for 24 h after the cells adhered to the plate. Three different concentrations PQQ (30 nm, 300 nm and 3 um) were added to the culture medium respectively. After additional 18 h incubation, the culture medium was discarded, and fresh culture medium supplemented with NBT (a final concentration of 1 mg/mL) was added to the cells. The cells were continually cultured for another 1 h at 37° C. The cells were fixed with 100% methanol, and naturally dried. 120 μL KOH (2 mol/L) and 140 μL DMSO were added to the cells. The optical density at wavelength 570 nm was measured.
# ectopic endometrial foci = assay: Endometriosis rat model, weight of transplanted foci; assay type: in vivo, SD rats
# [2] = system: endometrial stromal cells; assay: Apoptosis by Annexin V-FITC/PI flow cytometry; assay type: cell-based, human; settings: regardless of dose, 24 h
# Description: (§1) Endometrial tissues were surgically isolated from patients with chocolate cyst of ovary, washed 2 to 3 times with PBS supplemented with antibiotics in ultra-clean cabinet, and cut into tiny pieces (about 1 mm^3 in size) with aseptic scissors. The tissues were digested with 1 mg/ml collagenase type I for 30 to 90 min at 37° C., and continually digested with Dnase I (final concentration of 15 U/ml, 2% Dnase I) for another 30 min. The digested tissues were filtered thorough 60-mesh stainless steel filter cell strainer to remove the undigested cell tissues, and were further filtered with 200- or 400-mesh strainer. The filtered solution was centrifuged at 1000 rpm for 5 min. After removing the supernatants, the cells were washed once with culture medium compounded by DMEM/F12 (1:1 v/v) and 10% fetal bovine serum, re-suspended in the culture medium, and seeded in 6-well tissue culture plate or T25 tissue culture flasks with an appropriate density. After 24 hours incubation, the culture medium was changed to remove the non-adherent blood cells, endothelial cells, macrophages and other miscellaneous cells. […] Vimentin which expresses specifically in stromal cells was detected by immuno-fluorescence to measure the cell purity. […] Cell cycle was determined with flow cytometry. […] Cell apotosis was determined by flow cytometry.
# [3] = system: ectopic endometrial stromal cells; assay: Cell cycle by propidium iodide flow cytometry; assay type: cell-based, human; settings: 24 h, p<0.01
# Description: as §1
# [4] = cited from earlier work
# [5] = system: hydroxyl radical (.OH) in endometrial stromal cells; assay: Determination of hydroxyl radical (.OH) content; assay type: cell-based, human; settings: 18 h
# Description: Superoxide anion (O2.^−) assay kit was purchased from Nanjing Jiancheng Bioengineering Insitute; Hydroxyl free radical assay kit was purchased from Shanghai Xinyu Biological Technology Co., Ltd., Hydrogen Peroxide Assay Kit was purchased from Beyotime Biotechnology Research Institute. The cells were seeded in 6-well plate at 8×10^5 cells/well, and incubated for 24 h after the cells adhered to the plate. Three different concentrations of PQQ (30 nm, 300 nm and 3 μm) were added to the cultures respectively. The cells were incubated for additional 18 h. At the end of the treatment, the cultured cells were collected. 50 μL samples were added to each cell, followed by addition of 50 μL of antibody working solution. The sample was shaken to achieve a uniform mixture, and reacted at 37° C. for 30 min. The plates were then washed for four to five times. 100 μL of enzyme marker was added to each well. The resulting mixture was allowed to react for 20 min at 37° C. Coloration method: 50 μL of buffer liquid and 50 μL of substrate solution were added to each well in sequence. The mixture solution was gently shaken to achieve a uniform mixing, and coloured for 10 min in the dark at 37° C. […] The optical density at wavelength 560 nm was measured with microplate reader (Read the data in 20 min).
smiles,measurement,setting,value
"O=C(O)c1cc(C(=O)O)c2c(n1)C(=O)C(=O)c1cc(C(=O)O)[nH]c1-2 [PQQ, pyrroloquinoline quinone]",relative content of superoxide anion radical (O2.-),[1]; PQQ 300 nM,significantly declined
same,relative content of superoxide anion radical (O2.-),[1]; PQQ 3 uM,significantly declined
same,weight of ectopic endometrial foci compared with the control group,"ectopic endometrial foci; Example 5, rats, after 4 weeks treatment",evidently lower than that from the control group
same,weight of cysts after treatment (mg) Mean ± SD,"ectopic endometrial foci; Example 5, rats, water feeding 4 week, PQQ 1 mg/kg, NAC 10 mg/kg, Resveratro 10 mg/kg, n=9",71.2 ± 23.2 mg
same,weight of ectopic cys after treatment (mg) Mean ± SD,"ectopic endometrial foci; Example 7, rats, 4 weeks in drinking water, PQQ (disodium salt) 1 mg/kg/day, NAC 10 mg/kg/day, P+N (H) 1+10, P+N (L) 0.2+5 mg/kg/day, n=12",69.5 ± 12.7 mg
same,weight of ectopic cyst compared with model control group,"ectopic endometrial foci; Example 7, rats, after 4 weeks treatment, PQQ as disodium salt",evidently lower than that in the model control group
same,apoptosis or necrosis compared to the control,[2],No endometrial stromal cells apoptosis or necrosis
same,cell cycle,[3]; PQQ 3 um,arrest the cell in G0/G1 phase
same,cell cycle,[3]; PQQ 300 nm,arrest the cell in G0/G1 phase
same,adverse reactions,[4]; mice fed 100 mg/kg body weight/day for 14 consecutive days,did not show any adverse reactions
same,half lethal dose,[4]; mice,1000-2000 mg/kg body weight/day
same,relative content of hydroxyl radical (.OH),[5]; PQQ 300 nM,significantly declined
same,relative content of hydroxyl radical (.OH),[5]; PQQ 3 uM,significantly declined
